# Results from patent US8318752B2, “4-(3-chloro-2-fluoroanilino)-7-methoxy-6-{[1-(N-methylcarbamoyl-methyl)piperidin-4-yl]oxy}quinazoline, its pharmaceutically acceptable salts, and pharmaceutical compositions comprising the same” (Astrazeneca AB, priority 2003, dated 2012).
# Legend:
# KB cells = experiment: EGFR driven KB cell proliferation assay, Test (b); assay type: cell-based; details: Homo sapiens, 96 h, EGF 1 ng/ml, 4 days, MTT
# Description: This assay measures the ability of a test compound to inhibit the proliferation of KB cells (human naso-pharangeal carcinoma obtained from the American Type Culture Collection (ATCC).
# KB cells (human naso-pharangeal carcinoma obtained from the ATCC were cultured in Dulbecco's modified Eagle's medium (DMEM) containing 10% foetal calf serum, 2 mM glutamine and non-essential amino acids at 37° C. in a 7.5% CO2 air incubator. Cells were harvested from the stock flasks using Trypsin/ethylaminediaminetetraacetic acid (EDTA). Cell density was measured using a haemocytometer and viability was calculated using trypan blue solution before being seeded at a density of 1.25×10^3 cells per well of a 96 well plate in DMEM containing 2.5% charcoal stripped serum, 1 mM glutamine and non-essential amino acids at 37° C. in 7.5% CO2 and allowed to settle for 4 hours.
# Following adhesion to the plate, the cells are treated with or without EGF (final concentration of 1 ng/ml) and with or without compound at a range of concentrations in dimethylsulfoxide (DMSO) (0.1% final) before incubation for 4 days. Following the incubation period, cell numbers were determined by addition of 50 μl of 3-(4,5-Dimethylthiazol-2-yl)-2,5-diphenyltetrazolium bromide (MTT) (stock 5 mg/ml) for 2 hours. […]
# Absorbance of the solubilised cells was read at 540 nm using a Molecular Devices ThermoMax microplate reader. […]
# erbB2 = target: T1, erbB2 (Homo sapiens, UniProt P04626); experiment: Clone 24 phospho-erbB2 cell assay, Test (e); assay type: cell-based; details: MCF7 derived Clone 24 cells overexpressing erbB2, 4 hrs; read-out: IC50 (μM) Test (e): Inhibition of erbB2 tyrosine kinase protein phosphorylation
# T1 construct: overexpresses full length wild type erbB2 protein; expressed in transfected cells; host or cells: MCF7 (breast carcinoma) derived Clone 24 cells
# T1 sequence (P04626 23-1255): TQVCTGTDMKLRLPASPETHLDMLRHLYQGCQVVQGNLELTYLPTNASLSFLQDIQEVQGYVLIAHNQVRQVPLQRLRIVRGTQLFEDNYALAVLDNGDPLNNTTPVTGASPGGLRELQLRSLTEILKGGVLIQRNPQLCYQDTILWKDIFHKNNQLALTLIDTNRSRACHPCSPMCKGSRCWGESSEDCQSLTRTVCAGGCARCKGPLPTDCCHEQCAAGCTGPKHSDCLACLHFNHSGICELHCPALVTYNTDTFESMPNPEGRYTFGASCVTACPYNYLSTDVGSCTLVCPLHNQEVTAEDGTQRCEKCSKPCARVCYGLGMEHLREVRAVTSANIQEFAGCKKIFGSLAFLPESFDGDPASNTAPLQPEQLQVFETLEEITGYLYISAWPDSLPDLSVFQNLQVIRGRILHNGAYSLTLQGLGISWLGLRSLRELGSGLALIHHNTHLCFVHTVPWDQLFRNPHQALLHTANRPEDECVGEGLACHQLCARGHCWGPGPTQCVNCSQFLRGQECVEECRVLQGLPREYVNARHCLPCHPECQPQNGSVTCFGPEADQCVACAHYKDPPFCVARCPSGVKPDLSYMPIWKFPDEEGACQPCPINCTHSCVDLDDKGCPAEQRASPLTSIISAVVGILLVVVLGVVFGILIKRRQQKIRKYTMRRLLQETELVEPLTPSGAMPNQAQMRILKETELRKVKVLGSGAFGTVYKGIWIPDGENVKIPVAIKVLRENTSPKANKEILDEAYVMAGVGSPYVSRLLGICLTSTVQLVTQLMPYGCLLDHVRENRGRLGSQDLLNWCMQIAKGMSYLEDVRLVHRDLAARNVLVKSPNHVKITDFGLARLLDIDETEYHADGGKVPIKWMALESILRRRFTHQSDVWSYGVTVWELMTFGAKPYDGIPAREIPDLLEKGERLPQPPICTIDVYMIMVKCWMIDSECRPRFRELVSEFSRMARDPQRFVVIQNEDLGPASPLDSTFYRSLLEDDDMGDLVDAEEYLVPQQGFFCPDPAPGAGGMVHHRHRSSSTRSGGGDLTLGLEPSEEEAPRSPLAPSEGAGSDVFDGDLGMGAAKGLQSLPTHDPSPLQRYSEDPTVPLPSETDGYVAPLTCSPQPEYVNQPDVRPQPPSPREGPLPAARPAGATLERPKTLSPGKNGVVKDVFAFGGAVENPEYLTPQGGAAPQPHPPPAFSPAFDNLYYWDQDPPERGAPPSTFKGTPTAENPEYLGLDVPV
# Description: This immunofluorescence end point assay measures the ability of a test compound to inhibit the phosphorylation of erbB2 in a MCF7 (breast carcinoma) derived cell line which was generated by transfecting MCF7 cells with the full length erbB2 gene using standard methods to give a cell line that overexpresses full length wild type erbB2 protein (hereinafter ‘Clone 24’ cells).
# Clone 24 cells were cultured in Growth Medium (phenol red free Dulbecco's modified Eagle's medium (DMEM) containing 10% foetal bovine serum, 2 mM glutamine and 1.2 mg/ml G418) in a 7.5% CO2 air incubator at 37° C. Cells were harvested from T75 stock flasks by washing once in PBS (phosphate buffered saline, pH7.4, Gibco No. 10010-015) and harvested using 2 mls of Trypsin (1.25 mg/ml)/ethylaminediaminetetraacetic acid (EDTA) (0.8 mg/ml) solution. The cells were resuspended in Growth Medium. Cell density was measured using a haemocytometer and viability was calculated using Trypan Blue solution before being further diluted in Growth Medium and seeded at a density of 1×10^4 cells per well (in 100 ul) into clear bottomed 96 well plates (Packard, No. 6005182).
# 3 days later, Growth Medium was removed from the wells and replaced with 100 ul Assay Medium (phenol red free DMEM, 2 mM glutamine, 1.2 mg/ml G418) either with or without erbB inhibitor compound. Plates were returned to the incubator for 4 hrs and then 20 μl of 20% formaldehyde solution in PBS was added to each well and the plate was left at room temperature for 30 minutes. This fixative solution was removed with a multichannel pipette, 100 μl of PBS was added to each well and then removed with a multichannel pipette and then 50 μl PBS was added to each well. Plates were then sealed and stored for up to 2 weeks at 4° C.
# Immunostaining was performed at room temperature. […]
# The Fluorescence signal is each well was measured using an Acumen Explorer Instrument (Acumen Bioscience Ltd.), a plate reader that can be used to rapidly quantitate features of images generated by laser-scanning. […]
# EGFR tyrosine kinase = target: T2, EGFR tyrosine kinase (Homo sapiens, UniProt P00533); experiment: Protein tyrosine kinase phosphorylation assay, Test (a), EGFR; assay type: biochemical; details: recombinant intracellular fragment, ATP at Km; read-out: IC50 (μM) Test (a): Inhibition of EGFR tyrosine kinase protein phosphorylation
# T2 construct: Recombinant intracellular fragments of EGFR, erbB2 and erbB4; made in house; host or cells: baculovirus/Sf21
# T2 sequence (P00533 669-1210 limits assumed): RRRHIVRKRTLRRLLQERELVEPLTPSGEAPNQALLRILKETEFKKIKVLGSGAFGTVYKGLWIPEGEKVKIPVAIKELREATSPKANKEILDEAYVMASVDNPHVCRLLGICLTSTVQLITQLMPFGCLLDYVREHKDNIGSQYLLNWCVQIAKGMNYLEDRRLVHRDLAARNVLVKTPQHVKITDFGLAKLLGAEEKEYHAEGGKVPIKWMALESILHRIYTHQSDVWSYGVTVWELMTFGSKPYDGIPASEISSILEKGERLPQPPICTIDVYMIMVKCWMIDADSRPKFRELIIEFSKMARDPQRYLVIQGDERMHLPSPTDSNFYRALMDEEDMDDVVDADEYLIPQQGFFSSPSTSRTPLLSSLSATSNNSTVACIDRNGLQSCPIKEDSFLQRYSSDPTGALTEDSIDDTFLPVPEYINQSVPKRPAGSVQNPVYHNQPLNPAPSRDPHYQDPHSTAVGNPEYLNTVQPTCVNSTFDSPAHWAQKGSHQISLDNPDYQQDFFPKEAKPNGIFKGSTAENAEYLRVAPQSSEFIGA
# Description: (§1) This test measures the ability of a test compound to inhibit the phosphorylation of a tyrosine containing polypeptide substrate by EGFR or ErbB2 tyrosine kinase enzyme.
# (§2) Recombinant intracellular fragments of EGFR, erbB2 and erbB4 (accession numbers X00588, X03363 and L07868 respectively) were cloned and expressed in the baculovirus/Sf21 system. Lysates were prepared from these cells by treatment with ice-cold lysis buffer (20 mM N-2-hydroxyethylpiperizine-N′-2-ethanesulfonic acid (HEPES) pH7.5, 150 mM NaCl, 10% glycerol, 1% Triton X-100, 1.5 mM MgCl2, 1 mM ethylene glycol-bis(β-aminoethyl ether) N′,N′,N′,N′-tetraacetic acid (EGTA), plus protease inhibitors and then cleared by centrifugation.
# (§3) Constitutive kinase activity of the recombinant protein was determined by its ability to phosphorylate a synthetic peptide (made up of a random co-polymer of Glutamic Acid, Alanine and Tyrosine in the ratio of 6:3:1). Specifically, Maxisorb™ 96-well immunoplates were coated with synthetic peptide (0.2 μg of peptide in a 100 μl phosphate buffered saline (PBS) solution and incubated at 4° C. overnight). Plates were washed in PBS-T (phosphate buffered saline with 0.5% Tween 20) then in 50 mM HEPES pH 7.4 at room temperature to remove any excess unbound synthetic peptide. […]
# (§4) The immobilised phospho-peptide product of the reaction was detected by immunological methods. […] After further washing, HRP activity in each well of the plate was measured colorimetrically using 22′-Azino-di-[3-ethylbenzthiazoline sulfonate (6)] diammonium salt crystals (ABTS™ from Roche) as a substrate.
# (§5) Quantification of colour development and thus enzyme activity was achieved by the measurement of absorbance at 405 nm on a Molecular Devices ThermoMax microplate reader. Kinase inhibition for a given compound was expressed as an IC50 value. […] The range of phosphorylation was calculated from the positive (vehicle plus ATP) and negative (vehicle minus ATP) control values.
# erbB2 tyrosine kinase = target: T3, erbB2 tyrosine kinase (Homo sapiens, UniProt P04626); experiment: Protein tyrosine kinase phosphorylation assay, Test (a), erbB2; assay type: biochemical; details: recombinant intracellular fragment, ATP at Km; read-out: IC50 (μM) Test (a): Inhibition of erbB2 tyrosine kinase protein phosphorylation
# T3 construct: Recombinant intracellular fragments of EGFR, erbB2 and erbB4; made in house; host or cells: baculovirus/Sf21
# T3 sequence (P04626 676-1255 limits assumed): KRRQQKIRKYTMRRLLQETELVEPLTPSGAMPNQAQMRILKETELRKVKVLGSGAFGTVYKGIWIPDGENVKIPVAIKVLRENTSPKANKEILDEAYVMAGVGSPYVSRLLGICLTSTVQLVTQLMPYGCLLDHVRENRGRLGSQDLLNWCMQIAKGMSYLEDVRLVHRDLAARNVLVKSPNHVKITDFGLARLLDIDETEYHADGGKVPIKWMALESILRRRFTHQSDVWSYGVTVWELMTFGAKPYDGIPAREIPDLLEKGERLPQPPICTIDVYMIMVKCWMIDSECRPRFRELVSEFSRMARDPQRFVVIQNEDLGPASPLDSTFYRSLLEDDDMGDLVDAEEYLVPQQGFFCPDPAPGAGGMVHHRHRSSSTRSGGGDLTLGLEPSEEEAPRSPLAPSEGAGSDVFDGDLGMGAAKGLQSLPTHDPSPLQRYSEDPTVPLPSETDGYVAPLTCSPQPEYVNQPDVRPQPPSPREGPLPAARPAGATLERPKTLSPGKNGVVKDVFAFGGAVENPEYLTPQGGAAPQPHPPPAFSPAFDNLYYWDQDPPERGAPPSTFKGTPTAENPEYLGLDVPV
# Description: as §1, §2, §3, §4, §5
IC50 (KB cells) [µM],IC50 (erbB2) [µM],IC50 (EGFR tyrosine kinase) [µM],IC50 (erbB2 tyrosine kinase) [µM],SMILES
0.017,0.014,0.003,0.013,"COc1cc2ncnc(Nc3cccc(Cl)c3F)c2cc1OC1CCN(CC(=O)NCCN2CCCC2)CC1 [Example 7, 4-(3-chloro-2-fluoroanilino)-7-methoxy-6-{[1-(N-[2-(pyrrolidin-1-yl)ethyl]carbamoylmethyl)piperidin-4-yl]oxy}quinazoline]"
0.009,0.006,0.004,0.047,"CNC(=O)CN1CCC(Oc2cc3c(Nc4ccc(F)c(Cl)c4F)ncnc3cc2OC)CC1 [Example 5, 4-(3-chloro-2,4-difluoroanilino)-7-methoxy-6-{[1-(N-methycarbamoylmethyl)piperidin-4-yl]oxy}quinazoline]"
–,0.013,0.004,0.01,"COc1cc2ncnc(Nc3cccc(Cl)c3F)c2cc1OC1CCN(CC(=O)N2CCN(C)CC2)CC1 [Example 10, 4-(3-chloro-2-fluoroanilino)-7-methoxy-6-({1-[2-(4-methylpiperazin-1-yl)-2-oxoethyl]piperidin-4-yl}oxy)quinazoline]"
